From publication PMC9054772 (RSC Advances, 2020)

Biological target: T1, HsPKS1 (Huperzia serrata, UniProt A3E7Z7)
T1 sequence (A3E7Z7 1-399): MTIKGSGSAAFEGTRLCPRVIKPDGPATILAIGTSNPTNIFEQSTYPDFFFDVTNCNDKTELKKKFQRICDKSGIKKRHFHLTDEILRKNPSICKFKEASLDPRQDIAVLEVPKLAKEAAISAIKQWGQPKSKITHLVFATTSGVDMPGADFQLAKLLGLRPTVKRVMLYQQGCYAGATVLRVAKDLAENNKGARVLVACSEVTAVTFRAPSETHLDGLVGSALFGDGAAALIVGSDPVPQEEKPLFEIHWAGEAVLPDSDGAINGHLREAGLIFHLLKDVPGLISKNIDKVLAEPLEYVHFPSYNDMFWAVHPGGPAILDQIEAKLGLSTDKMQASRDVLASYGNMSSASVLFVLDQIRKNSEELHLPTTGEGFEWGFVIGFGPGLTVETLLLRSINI
Assay: product formation by HPLC / LC-MS
Assay type: biochemical
Conditions: with malonyl-CoA

CC(C)(COP(=O)(O)OP(=O)(O)OC[C@H]1O[C@@H](n2cnc3c(N)ncnc32)[C@H](O)[C@@H]1OP(=O)(O)O)[C@@H](O)C(=O)NCCC(=O)NCCSC(=O)Cc1ccccn1 [2-pyridylacetyl-CoA]
product formation by HPLC / LC-MS (library screen): Only two type III PKSs (HsPKS1 and HsPKS3) from H. serrata
